Experimental data: the NIST ThermoML archive (doi:10.1021/je700542v)
Where “and” joins values, the source holds several entries; their conditions need not be identical. Equal entries are not always repeated.

Conditions: Crystal

[Cu+2].[F-].[F-] [copper difluoride]
Conditions | vapor or sublimation pressure
881 K | 2.188e-05 kPa
886 K | 2.951e-05 kPa
895 K | 4.365e-05 kPa
896 K | 3.715e-05 kPa and 4.365e-05 kPa
897 K | 4.365e-05 kPa
900 K | 4.365e-05 kPa
901 K | 5.129e-05 kPa
902 K | 5.129e-05 kPa
903 K | 5.888e-05 kPa
906 K | 5.888e-05 kPa
908 K | 5.888e-05 kPa
909 K | 8.128e-05 kPa
911 K | 6.607e-05 kPa
912 K | 8.912e-05 kPa
913 K | 7.413e-05 kPa
914 K | 8.128e-05 kPa
915 K | 8.912e-05 kPa and 7.413e-05 kPa
918 K | 7.413e-05 kPa
919 K | 0.0001023 kPa
921 K | 0.0001175 kPa
922 K | 0.0001023 kPa and 9.55e-05 kPa
924 K | 0.0001175 kPa
925 K | 0.0001096 kPa
928 K | 0.0001175 kPa
929 K | 0.0001318 kPa
930 K | 0.0001318 kPa and 0.0001479 kPa and 0.0001622 kPa
931 K | 0.0001096 kPa
932 K | 0.0001622 kPa
934 K | 0.0001479 kPa
939 K | 0.0001905 kPa and 0.0001778 kPa
940 K | 0.0001905 kPa and 0.0002188 kPa
941 K | 0.0001778 kPa
942 K | 0.0002042 kPa
943 K | 0.0002042 kPa
944 K | 0.0001905 kPa
948 K | 0.0002512 kPa and 0.0002344 kPa
949 K | 0.0002512 kPa
950 K | 0.000309 kPa
952 K | 0.0002818 kPa and 0.000263 kPa
953 K | 0.0002818 kPa
955 K | 0.000309 kPa
956 K | 0.0002951 kPa and 0.0002818 kPa
959 K | 0.0003715 kPa and 0.0003548 kPa
960 K | 0.0003802 kPa
961 K | 0.0004365 kPa
964 K | 0.0004266 kPa
965 K | 0.0003802 kPa and 0.0004074 kPa
969 K | 0.0005012 kPa [middle of 4 runs]
970 K | 0.0005888 kPa
973 K | 0.0005495 kPa and 0.0005129 kPa
974 K | 0.0005129 kPa
976 K | 0.0006166 kPa
978 K | 0.0006607 kPa
979 K | 0.0006607 kPa and 0.0007413 kPa
982 K | 0.0006607 kPa
983 K | 0.0007413 kPa
984 K | 0.0006761 kPa
986 K | 0.0008128 kPa and 0.0008318 kPa
988 K | 0.0008318 kPa
989 K | 0.0007943 kPa
990 K | 0.0008511 kPa
992 K | 0.0009772 kPa
993 K | 0.001023 kPa
996 K | 0.001122 kPa and 0.001097 kPa
998 K | 0.001122 kPa and 0.001023 kPa
999 K | 0.001097 kPa
1002 K | 0.001288 kPa
1003 K | 0.00123 kPa
1005 K | 0.001445 kPa and 0.001412 kPa
1006 K | 0.001412 kPa
1007 K | 0.001349 kPa
1008 K | 0.001445 kPa
1011 K | 0.001698 kPa
1013 K | 0.00182 kPa
1014 K | 0.001862 kPa
1015 K | 0.001906 kPa and 0.001778 kPa
1016 K | 0.001738 kPa
1020 K | 0.002188 kPa and 0.001995 kPa
1023 K | 0.002455 kPa
1024 K | 0.002455 kPa
1025 K | 0.00257 kPa and 0.002455 kPa and 0.002239 kPa
1030 K | 0.00263 kPa
1032 K | 0.00309 kPa
1033 K | 0.003162 kPa
1051 K | 0.005129 kPa

[Ag+].[F-] [silver fluoride]
Conditions | vapor or sublimation pressure
880 K | 5.754e-05 kPa
891 K | 5.248e-05 kPa
894 K | 7.763e-05 kPa
897 K | 7.763e-05 kPa
904 K | 8.318e-05 kPa
910 K | 0.0001549 kPa and 9.772e-05 kPa and 0.0001047 kPa
912 K | 0.0001047 kPa
913 K | 0.0001349 kPa
914 K | 0.0001549 kPa
917 K | 0.0001549 kPa
920 K | 0.0002291 kPa and 0.0001549 kPa and 0.000166 kPa
921 K | 0.0001738 kPa
925 K | 0.000166 kPa
928 K | 0.0002344 kPa
929 K | 0.000195 kPa and 0.0002089 kPa
931 K | 0.0001738 kPa and 0.0002512 kPa
933 K | 0.0002089 kPa
936 K | 0.0002692 kPa
938 K | 0.0002692 kPa
939 K | 0.0003715 kPa
941 K | 0.0002399 kPa
942 K | 0.0002692 kPa
947 K | 0.0004074 kPa
948 K | 0.000309 kPa and 0.0004266 kPa
949 K | 0.0005248 kPa and 0.0003467 kPa and 0.0003715 kPa
955 K | 0.0003715 kPa
956 K | 0.0004266 kPa
958 K | 0.0005012 kPa and 0.0004677 kPa
965 K | 0.000537 kPa and 0.0005012 kPa
966 K | 0.0006918 kPa
967 K | 0.0006761 kPa
968 K | 0.0008913 kPa
974 K | 0.0006456 kPa
975 K | 0.0006761 kPa
977 K | 0.0007244 kPa and 0.0007763 kPa
978 K | 0.0008511 kPa
979 K | 0.0008913 kPa
984 K | 0.001047 kPa
985 K | 0.000871 kPa and 0.000912 kPa and 0.0009772 kPa
986 K | 0.001445 kPa
987 K | 0.0008913 kPa
990 K | 0.001175 kPa
994 K | 0.001097 kPa and 0.001175 kPa
995 K | 0.001698 kPa
996 K | 0.001349 kPa and 0.001071 kPa
1000 K | 0.001479 kPa and 0.001585 kPa
1004 K | 0.001445 kPa
1005 K | 0.00123 kPa
1008 K | 0.002239 kPa
1010 K | 0.001862 kPa
1012 K | 0.00166 kPa and 0.001778 kPa
1013 K | 0.001995 kPa and 0.001412 kPa
1014 K | 0.001738 kPa
1017 K | 0.00263 kPa
1019 K | 0.002399 kPa
1022 K | 0.002089 kPa and 0.002239 kPa
1025 K | 0.002344 kPa
1026 K | 0.001995 kPa
1031 K | 0.002455 kPa and 0.00263 kPa
1034 K | 0.00257 kPa
1036 K | 0.003311 kPa
1037 K | 0.003548 kPa
1040 K | 0.00309 kPa and 0.003311 kPa
1049 K | 0.003715 kPa and 0.003981 kPa
1057 K | 0.004467 kPa and 0.004786 kPa
